Results as given in ChEMBL document CHEMBL5108059, “Discovery of 2-Methyl-2-(4-(2-methyl-8-(1H-pyrrolo[2,3-b]pyridin-6-yl)-1H-naphtho[1,2-d]imidazol-1-yl)phenyl)propanenitrile as a Novel PI3K/mTOR Inhibitor with Enhanced Antitumor Efficacy In Vitro and In Vivo” (J Med Chem, 2022).
Activity calls are given as the source filed them. The calls are words filed in the database; no cut-off is given here.

How the values were obtained:
[1] = target: Serine/threonine-protein kinase mTOR (Homo sapiens, UniProt P42345); test: Inhibition of N-terminal FLAG-tagged recombinant human mTOR (1362 to end residue) using ULight-4EBP1 peptide as substrate incubated for 30 mins in presence of ATP by Lance ultra assay
[2] = target: T1, Phosphatidylinositol 4,5-bisphosphate 3-kinase catalytic subunit alpha isoform (Homo sapiens, UniProt P42336); test: Inhibition of PI3Kalpha (unknown origin) using PIP2 as substrate incubated for 1 hr in presence of ATP by Kinase Glo luminescence assay
[3] = target: T2, Phosphatidylinositol 4,5-bisphosphate 3-kinase catalytic subunit beta isoform (Homo sapiens, UniProt P42338); test: Inhibition of PI3Kbeta (unknown origin) using PIP2 as substrate incubated for 1 hr in presence of ATP by Kinase Glo luminescence assay
SW-620 = test: Antiproliferative activity against human SW620 cells assessed as inhibition of cell growth incubated for 48 to 72 hrs by MTT assay; assay type: functional, cell-based
HeLa [4] = test: Induction of apoptosis in human HeLa cells assessed as late apoptotic cells at 0.15625 uM incubated for 36 hrs by Annexin V-FITC/PI staining based flow cytometric analysis (reference value: 1.4 %); assay type: functional; conditions: 0.1562 µM
HeLa [5] = test: Induction of apoptosis in human HeLa cells assessed as viable cells at 0.3125 uM incubated for 36 hrs by Annexin V-FITC/PI staining based flow cytometric analysis (reference value: 96.14 %); assay type: functional; conditions: read-out: Activity
HeLa [6] = test: Induction of apoptosis in human HeLa cells assessed as early apoptotic cells at 0.625 uM incubated for 36 hrs by Annexin V-FITC/PI staining based flow cytometric analysis (reference value: 2.02 %); assay type: functional
HeLa [7] = test: Induction of apoptosis in human HeLa cells assessed as viable cells at 1.25 uM incubated for 36 hrs by Annexin V-FITC/PI staining based flow cytometric analysis (reference value: 96.14 %); assay type: functional; conditions: read-out: Activity
HeLa [8] = test: Induction of apoptosis in human HeLa cells assessed as early apoptotic cells at 1.25 uM incubated for 36 hrs by Annexin V-FITC/PI staining based flow cytometric analysis (reference value: 2.02 %); assay type: functional
HeLa [9] = test: Induction of apoptosis in human HeLa cells assessed as late apoptotic cells at 2.5 uM incubated for 36 hrs by Annexin V-FITC/PI staining based flow cytometric analysis (reference value: 1.4 %); assay type: functional
HeLa [10] = test: Induction of cell cycle arrest in human HeLa cells assessed as accumulation of cells at G0/G1 phase measured after 24 hrs by propidium iodide staining based flow cytometry analysis; assay type: functional; conditions: dose 0.15625-2.5 µM, DDE = dose-dependent effect
[11] = AUC (0 to infinity) in Sprague-Dawley rat at 1 mg/kg, iv measured for 24 hrs by LC-MS/MS analysis; assay type: ADME, organism-based; design: time 24 hrs, dose 1 mg/kg, route iv; conditions: in vivo
[12] = Half life in Sprague-Dawley rat at 10 mg/kg, po measured for 24 hrs by LC-MS/MS analysis; assay type: ADME, organism-based; conditions: in vivo
[13] = Cmax in Sprague-Dawley rat at 10 mg/kg, po measured for 24 hrs by LC-MS/MS analysis; assay type: ADME, organism-based; design: time 24 hrs, dose 10 mg/kg, route po; conditions: in vivo
[14] = Tmax in Sprague-Dawley rat at 10 mg/kg, po measured for 24 hrs by LC-MS/MS analysis; assay type: ADME, organism-based; conditions: in vivo
[15] = Toxicity in BALB/c nude mouse xenografted with human SW620 cells assessed as lethality at 15 to 60 mg/kg, IG administered daily for 30 days and measured every 2 days; assay type: organism-based, SW-620; conditions: in vivo, po, 720 h, dose 15-60 mg/kg, time 30 day
HeLa [16] = test: Induction of apoptosis in human HeLa cells xenografted in BALB/c nude mouse at 15 to 60 mg/kg, IG administered daily for 30 days by TUNEL assay; assay type: functional, organism-based; conditions: dose 15-60 mg/kg, time 30.0 day
[17] = Toxicity in BALB/c nude mouse xenografted with human HeLa cells assessed as pathological changes in lung at 60 mg/kg, IG administered daily for 30 days by hematoxylin and eosin staining based microscopic analysis; assay type: organism-based; conditions: in vivo, po, 720 h, time 30 day
[18] = target: T1, Phosphatidylinositol 4,5-bisphosphate 3-kinase catalytic subunit alpha isoform; test: Inhibition of PI3Kalpha (unknown origin) using L-alpha-phosphatidylinositol as substrate incubated for 60 mins in presence of ATP by Kinase Glo luminescence assay
[19] = target: T2, Phosphatidylinositol 4,5-bisphosphate 3-kinase catalytic subunit beta isoform; test: Inhibition of PI3Kbeta (unknown origin) using L-alpha-phosphatidylinositol as substrate incubated for 60 mins in presence of ATP by Kinase Glo luminescence assay
[20] = target: T3, Phosphatidylinositol 4,5-bisphosphate 3-kinase catalytic subunit delta isoform (Homo sapiens, UniProt O00329); test: Inhibition of PI3Kdelta (unknown origin) using L-alpha-phosphatidylinositol as substrate incubated for 60 mins in presence of ATP by Kinase Glo luminescence assay
T3 sequence (O00329 whole entry): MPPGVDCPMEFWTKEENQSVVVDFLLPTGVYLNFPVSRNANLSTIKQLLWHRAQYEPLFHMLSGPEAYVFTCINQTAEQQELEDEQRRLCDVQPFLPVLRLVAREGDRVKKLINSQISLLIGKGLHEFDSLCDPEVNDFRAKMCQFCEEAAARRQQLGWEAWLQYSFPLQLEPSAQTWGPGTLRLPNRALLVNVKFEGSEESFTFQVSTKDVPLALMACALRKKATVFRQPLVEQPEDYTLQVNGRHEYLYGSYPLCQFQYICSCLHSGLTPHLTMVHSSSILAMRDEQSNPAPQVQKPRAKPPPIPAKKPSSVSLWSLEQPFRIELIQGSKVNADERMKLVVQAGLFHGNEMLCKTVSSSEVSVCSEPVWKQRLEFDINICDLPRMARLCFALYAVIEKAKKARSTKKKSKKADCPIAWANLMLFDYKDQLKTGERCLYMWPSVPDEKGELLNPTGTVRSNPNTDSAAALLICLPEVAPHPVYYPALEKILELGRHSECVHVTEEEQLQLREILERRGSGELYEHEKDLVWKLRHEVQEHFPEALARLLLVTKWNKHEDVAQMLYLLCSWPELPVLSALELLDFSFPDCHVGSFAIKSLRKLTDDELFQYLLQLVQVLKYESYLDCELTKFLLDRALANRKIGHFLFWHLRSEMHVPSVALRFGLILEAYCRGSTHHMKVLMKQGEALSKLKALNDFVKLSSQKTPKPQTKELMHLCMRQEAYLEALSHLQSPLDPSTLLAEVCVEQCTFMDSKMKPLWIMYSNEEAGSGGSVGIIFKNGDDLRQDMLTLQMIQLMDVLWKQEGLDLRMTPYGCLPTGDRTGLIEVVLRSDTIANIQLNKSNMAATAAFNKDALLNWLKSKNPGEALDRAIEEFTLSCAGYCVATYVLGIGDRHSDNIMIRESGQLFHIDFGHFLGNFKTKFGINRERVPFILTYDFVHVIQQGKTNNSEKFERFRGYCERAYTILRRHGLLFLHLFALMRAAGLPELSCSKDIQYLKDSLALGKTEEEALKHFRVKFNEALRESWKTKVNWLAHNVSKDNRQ

[21] = target: Serine/threonine-protein kinase mTOR (Rattus norvegicus, UniProt P42346); test: Inhibition of rat brain mTOR using GST-p70S6K fusion protein as substrate preincubated for 30 mins followed by ATP addition and measured after 30 mins by K-Lisa assay; assay type: tissue-based

T2 sequence (P42338 whole entry, canonical isoform): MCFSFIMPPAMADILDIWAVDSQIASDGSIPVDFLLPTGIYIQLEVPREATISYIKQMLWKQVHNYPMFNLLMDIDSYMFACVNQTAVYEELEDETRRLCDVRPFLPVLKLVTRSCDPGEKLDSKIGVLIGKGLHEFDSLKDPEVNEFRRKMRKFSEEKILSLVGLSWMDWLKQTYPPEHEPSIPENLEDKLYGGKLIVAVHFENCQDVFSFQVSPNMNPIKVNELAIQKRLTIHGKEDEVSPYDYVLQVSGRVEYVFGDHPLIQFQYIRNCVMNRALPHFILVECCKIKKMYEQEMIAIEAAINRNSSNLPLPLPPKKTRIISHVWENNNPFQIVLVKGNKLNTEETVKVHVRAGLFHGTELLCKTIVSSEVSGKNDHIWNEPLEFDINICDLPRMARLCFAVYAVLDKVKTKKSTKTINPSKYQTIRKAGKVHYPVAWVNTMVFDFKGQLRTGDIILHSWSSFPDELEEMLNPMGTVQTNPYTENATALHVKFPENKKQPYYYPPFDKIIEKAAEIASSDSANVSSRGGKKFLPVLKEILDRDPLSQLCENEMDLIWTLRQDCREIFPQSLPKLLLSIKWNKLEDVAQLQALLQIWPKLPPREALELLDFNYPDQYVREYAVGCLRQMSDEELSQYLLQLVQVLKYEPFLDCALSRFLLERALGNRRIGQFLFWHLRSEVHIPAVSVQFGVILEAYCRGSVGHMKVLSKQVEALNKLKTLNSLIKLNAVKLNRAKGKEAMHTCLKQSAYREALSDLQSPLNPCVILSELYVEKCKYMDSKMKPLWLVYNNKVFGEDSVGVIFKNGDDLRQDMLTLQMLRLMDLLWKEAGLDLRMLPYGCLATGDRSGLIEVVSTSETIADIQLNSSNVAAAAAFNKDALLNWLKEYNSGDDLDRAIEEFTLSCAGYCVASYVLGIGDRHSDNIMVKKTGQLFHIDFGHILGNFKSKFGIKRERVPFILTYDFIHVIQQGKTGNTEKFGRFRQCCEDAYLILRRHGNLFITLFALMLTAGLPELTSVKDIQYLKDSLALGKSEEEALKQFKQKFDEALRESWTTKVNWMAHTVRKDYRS
T1 sequence (P42336 whole entry, canonical isoform): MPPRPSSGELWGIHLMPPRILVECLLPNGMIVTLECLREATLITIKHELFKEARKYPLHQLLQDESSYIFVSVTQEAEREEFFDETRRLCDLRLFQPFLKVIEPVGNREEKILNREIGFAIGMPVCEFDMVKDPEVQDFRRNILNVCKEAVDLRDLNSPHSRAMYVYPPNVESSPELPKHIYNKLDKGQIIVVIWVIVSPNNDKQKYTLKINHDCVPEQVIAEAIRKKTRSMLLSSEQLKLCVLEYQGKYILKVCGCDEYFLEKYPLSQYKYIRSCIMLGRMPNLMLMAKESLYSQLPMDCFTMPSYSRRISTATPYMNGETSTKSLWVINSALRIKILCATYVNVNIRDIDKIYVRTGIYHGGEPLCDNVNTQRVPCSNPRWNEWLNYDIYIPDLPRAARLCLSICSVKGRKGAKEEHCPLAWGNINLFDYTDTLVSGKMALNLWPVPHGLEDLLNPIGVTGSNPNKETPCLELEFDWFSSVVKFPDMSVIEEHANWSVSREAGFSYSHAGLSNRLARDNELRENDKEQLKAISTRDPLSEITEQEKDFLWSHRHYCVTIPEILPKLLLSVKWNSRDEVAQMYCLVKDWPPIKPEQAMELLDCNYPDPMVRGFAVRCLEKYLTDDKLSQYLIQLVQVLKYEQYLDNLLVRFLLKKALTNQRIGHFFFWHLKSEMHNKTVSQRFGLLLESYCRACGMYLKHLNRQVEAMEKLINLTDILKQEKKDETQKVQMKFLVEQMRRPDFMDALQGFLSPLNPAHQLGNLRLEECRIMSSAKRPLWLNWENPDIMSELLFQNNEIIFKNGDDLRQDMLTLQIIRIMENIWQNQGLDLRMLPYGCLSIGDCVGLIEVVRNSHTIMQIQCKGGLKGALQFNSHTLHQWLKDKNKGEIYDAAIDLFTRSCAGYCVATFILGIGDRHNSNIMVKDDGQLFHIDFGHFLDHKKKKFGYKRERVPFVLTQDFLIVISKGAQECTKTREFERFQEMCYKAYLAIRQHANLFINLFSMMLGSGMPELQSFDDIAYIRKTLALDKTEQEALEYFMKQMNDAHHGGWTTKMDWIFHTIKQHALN

SMILES: Cc1nc2cnc3ccc(-c4cnc5[nH]ccc5c4)cc3c2n1-c1ccc(C(C)(C)C#N)nc1
- IC50 [1]: 21.3 nM
- IC50 [2]: 3.5 nM
- IC50 [3]: 108 nM
- IC50 (SW-620): 160 nM
- Activity (HeLa [4]): 1.92%
- viability at 0.3125 µM (HeLa [5]): 89.9%
- Activity (HeLa [6]): 18.32%
- viability at 1.25 µM (HeLa [7]): 41.2%
- Activity (HeLa [8]): 26.11%
- Activity (HeLa [9]): 38.86%
- Activity (HeLa [10]): Dde
- AUC [11]: 992 ng·h/mL
- t1/2 [12]: 2.6 h
- Cmax [13]: 2995 ng/mL
- Tmax [14]: 0.75 h
- Activity [15]: Non-Toxic
- Activity (HeLa [16]): Active
- Activity [17]: Non-Toxic
- IC50 [18]: 4 nM
- IC50 [19]: 75 nM
- IC50 [20]: 7 nM
- IC50 [21]: 20.7 nM
